Data published in PMC6366404, “4-(3-Nitrophenyl)thiazol-2-ylhydrazone derivatives as antioxidants and selective hMAO-B inhibitors: synthesis, biological activity and computational analysis” (Journal of Enzyme Inhibition and Medicinal Chemistry, 2019).

Columns and labels:
hMAO-B = target: T1, hMAO-B (Homo sapiens, UniProt P27338); test: Lineweaver-Burk plots, mode of inhibition and Ki; assay type: biochemical
T1 sequence (P27338 1-520): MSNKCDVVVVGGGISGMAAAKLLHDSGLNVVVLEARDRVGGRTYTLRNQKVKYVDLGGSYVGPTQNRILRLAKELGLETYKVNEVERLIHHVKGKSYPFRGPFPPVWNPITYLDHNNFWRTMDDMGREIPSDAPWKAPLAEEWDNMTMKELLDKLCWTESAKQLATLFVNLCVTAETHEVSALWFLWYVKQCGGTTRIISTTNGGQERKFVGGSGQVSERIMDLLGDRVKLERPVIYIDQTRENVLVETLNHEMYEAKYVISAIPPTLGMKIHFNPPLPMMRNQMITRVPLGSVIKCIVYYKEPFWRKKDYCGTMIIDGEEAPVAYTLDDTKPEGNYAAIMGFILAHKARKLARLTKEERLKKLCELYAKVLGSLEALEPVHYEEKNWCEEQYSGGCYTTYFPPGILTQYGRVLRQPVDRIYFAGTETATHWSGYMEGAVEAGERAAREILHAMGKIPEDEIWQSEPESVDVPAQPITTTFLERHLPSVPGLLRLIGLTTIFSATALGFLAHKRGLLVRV
Protocol: To construct Lineweaver–Burk plots, the enzyme reactions were carried out to a volume of 500 µL and the concentration of MAO-B was 0.015 mg protein/mL. All enzyme reactions and activity measurements were carried out as described above for the dialysis experiments. The first plot was constructed in the absence of inhibitor, while the remaining five plots were constructed in the presence of the following concentrations: ¼ × IC50, ½ × IC50, ¾ × IC50, 1 × IC50 and 1¼ × IC50. For each line, kynuramine was used at concentrations of 15–250 μM. The Ki value was estimated from a plot of the slopes of the Lineweaver–Burk plots versus inhibitor concentration (x-axis intercept equals –Ki).
To provide further support for the reversibility of MAO-B inhibition by compounds 4 and 37, a set of Lineweaver–Burk plots was constructed for each inhibitor at the following inhibitor concentrations: ¼ × IC50, ½ × IC50, ¾ × IC50, 1 × IC50, and 1¼ × IC50. The substrate, kynuramine, was used at 15–250 µM for each line. […] The lines of the plots intersect on the y-axis and a replot of the slopes versus inhibitor concentration yields a linear line, from which the enzyme-inhibitor dissociation constant (Ki) was estimated (Ki = −x-axis intercept).

[1] = Phosphomolybdenum assay (PhosphoMo), total antioxidant activity; settings: concentration at which absorbance was 0.5
[2] = DPPH radical scavenging activity
[3] = ABTS radical cation scavenging activity
[4] = Cupric ion reducing activity (CUPRAC)
[5] = FRAP (ferric reducing antioxidant power) assay

Compound: CC(=NNc1nc(-c2cccc([N+](=O)[O-])c2)cs1)c1cccs1 [Compound 4, 1-(4-(3-Nitrophenyl)thiazol-2-yl)-2-(1-(thiophen-2-yl)ethylidene)hydrazine]
- Ki (hMAO-B): 0.0026 µM
- Mode of MAO-B inhibition (hMAO-B; Lineweaver-Burk plots): competitive
- EC50 [1]: 1680 ± 90 µM
- IC50 [2]: 1170 ± 10 µM
- IC50 [3]: 1040 ± 10 µM
- EC50 [4]: 520 ± 20 µM
- EC50 [5]: 530 ± 20 µM
